Here are results for 3 molecules from US9567319B2, “Compound having higher inhibitory activity on protein kinase G and preparation method thereof” (Jenkem Technology Co., Ltd., (Tianjin), priority 2014, dated 2017).

Entries after “also recorded” stand apart in the source; their conditions may differ.

In the test the test system is hyperalgesia induced by Freund's complete adjuvant (CFA) in rats. The test can be described thus: Therapeutic effect on CFA induced hyperalgesia in rats (overall conclusion of Von Frey and weight bearing tests). The settings on record: for anti-hyperalgesia effect at high dose: high dose i.v.: JK-02H 20 mg/kg, 46 and JK-02A 40 mg/kg; for anti-hyperalgesia effect at high dose / anti-hyperalgesia effect at low dose: compared with vehicle; for anti-hyperalgesia effect at low dose: low dose i.v.: JK-02H 5 mg/kg, 46 and JK-02A 10 mg/kg. Format: in vivo, SD rats. The protocol: . A repeat efficacy study was carried out on the same batch of animals with a single-dose treatment followed by a washing-out period. The 14 days in life studies included two stages: a single low dose treatment assessment on the 7th day and then a single high dose treatment test on the 14th day after CFA injection.
On the 7th day after CFA injection, the rats were randomly assigned to respective groups using a computer generated randomization procedure based on the body weight and the baseline values of Von Frey and weight bearing test. Animals received corresponding single dose treatments (vehicle and 3 test articles) on the 7th and 14th days after CFA injection, respectively, and the effect of the test compounds were evaluated. Hyperalgesia of all the study animals was assessed following a single low dose treatment with the test articles on day 7, while a single high dose effect of the test article was evaluated on day 14.
The mechanical hyperalgesia and weight bearing were measured on day 7 and day 14 after CFA injection, followed by administration of control or test articles. Von Frey filaments and weight bearing were measured on all the study animals at three time points on day 7, and four time points on day 14. An extra time point assessment was conducted on day 14, considering the strong analgesic effect of the test articles at a higher dose noticed during the test at the 3th time point.
The effects of compounds 46, JK-02A and JK-02H on CFA induced hyperalgesia in rats were assessed with Von Frey and weight bearing tests following single injection.

As to `Cl.O=C(N[C@@H]1CNC[C@H]1NC(=O)c1ccc2cn[nH]c2c1)c1ccc(C(=O)c2c(OCCOCCO)ccc(F)c2F)cc1` [JK-02H, (3R,4R)-3-{4-[2,3-difluoro-6-(5-hydroxy-3-oxapentan-1-oxy)]benzoyl}benzamido-4-(1H-indazole-6-carboxamido)pyrrolidine hydrochloride], the “therapeutic effect when the test time was prolonged to 5 h” value (high dose (20 mg/kg), 5 h post treatment) is “very remarkable therapeutic effect”. For the same molecule, where the note is “hydrochloride”, the “anti-hyperalgesia effect at high dose” value is reported as “excellent anti-hyperalgesia effect; also recorded: significant anti-hyperalgesia effects” and the “anti-hyperalgesia effect at low dose” value is reported as “excellent anti-hyperalgesia effect; also recorded: significant anti-hyperalgesia effects”.
With `CCCOc1ccc(F)c(F)c1C(=O)c1ccc(C(=O)N[C@@H]2CNC[C@H]2NC(=O)c2ccc3cn[nH]c3c2)cc1` [JK-02A], the “anti-hyperalgesia effect at high dose” value is given as “showed anti-hyperalgesia effects” and the “anti-hyperalgesia effect at low dose” value is “not significant”.
The corresponding values for `CCCOc1ccc(O)c(F)c1C(=O)c1ccc(C(=O)N[C@@H]2CNC[C@H]2NC(=O)c2ccc3cn[nH]c3c2)cc1` [compound 46] are “anti-hyperalgesia effect; also recorded: showed anti-hyperalgesia effects” and “barely showed any anti-hyperalgesia effect; also recorded: not significant”.
